In brackets after ≈: the same amount, converted by molar mass.
Columns and labels:
physchem [1] = assay: physchem
in vitro [2] = details: human
in vitro [3] = details: hepatocytes
physchem [4] = details: octan-1-ol/water
in vitro [5] = details: human, plasma
in vitro [6] = details: Beagle, dog, plasma
physchem [7] = details: pH 7.4 buffer
in vitro [8] = details: SD, HW or BN, rat, plasma
in vitro [9] = details: human, hepatocytes

| SMILES | pKa (physchem [1]) | microsomal CLint (in vitro [2]; liver microsomes) | logD (physchem [4]; pH 7.4, LogD7.4) | other results |
| --- | --- | --- | --- | --- |
| O=S(=O)(c1ccccc1)N1CCN(Cc2ccccc2)CC1 | 5.6 | 64 µL/min/mg | – | hepatocyte CLint (in vitro [3]): > 150 µL/min/1e6 cells |
| Cc1ncc([N+](=O)[O-])n1CCO [METRONIDAZOLE] | 2.51 | – | -0.11 | – |
| CN(C)CCC=C1c2ccccc2COc2ccccc21 [DOXEPIN] | 8.5 | – | 2.15 | – |
| CCC(CCNC)Oc1cc(Cl)ccc1C#N (stereo not drawn) | 10.1 | < 3 µL/min/mg | 0.38 | – |
| Nc1ccc(OCC(=O)O)c(-c2ccccc2)c1 | 5.1 | < 3 µL/min/mg | – | – |
| C[C@H](CO)Nc1nc(SCc2cccc(F)c2F)nc2nc(N)cnc12 | 4.2 | 12 µL/min/mg | 2.89 | fraction unbound at 5 h (in vitro [5]; PPB): 0.0447 |
| CCCc1nc(C(C)(C)O)c(C(=O)O)n1Cc1ccc(-c2ccccc2-c2nnn[nH]2)cc1 [OLMESARTAN] | – | – | – | fraction unbound at 5 h (in vitro [6]): 0.0119 |
| O=C(NCC12CC3CC(CC(C3)C1)C2)c1ccnc(N2CCNCC2)c1Cl | 8.7 | 73 µL/min/mg | – | hepatocyte CLint (in vitro [3]): 7.2 µL/min/1e6 cells |
| CCOCc1nc2c(N)nc3ccccc3c2n1CC(C)(C)O [RESIQUIMOD] | 7.1 | – | 1.69 | solubility thermodynamic (physchem [7]): 417 µM (≈ 131 µg/mL); fraction unbound at 5 h (in vitro [8]): 0.574 |
| NC1=Nc2ccccc2Sc2cccc(F)c21 | 6.5 | – | – | fraction unbound at 5 h (in vitro [5]; PPB): 0.0568; hepatocyte CLint (in vitro [9]): 13.2 µL/min/1e6 cells |
| Cc1c(CC(=O)O)c2cc(F)ccc2n1S(=O)(=O)c1ccc(S(C)(=O)=O)cc1 | – | – | -0.44 | fraction unbound at 5 h (in vitro [6]): 0.0521 |
| CNCC[C@@H](Oc1cc(Cl)ccc1C#N)c1ccccc1 | 9.9 | – | – | hepatocyte CLint (in vitro [3]): > 150 µL/min/1e6 cells |
| O=C(NCC12CC3CC(CC(C3)C1)C2)c1cc(OC2CCNCC2)ncc1Cl | 9.1 | – | 1.56 | – |
| CNCC[C@@H](Oc1cc(OC)ccc1C#N)c1ccccc1 | 10.2 | 26 µL/min/mg | 0.87 | hepatocyte CLint (in vitro [3]): 142 µL/min/1e6 cells |
| CC(NC(C)(C)C)C(=O)c1cccc(Cl)c1 (stereo not drawn) [BUPROPION] | 8.4 | – | – | logD (physchem [4]; pH 7.4): 2.12; fraction unbound at 5 h (in vitro [5]): 0.54; microsomal CLint (in vitro [2]; microsomes): 12 µL/min/mg; hepatocyte CLint (in vitro [3]): 72.4 µL/min/1e6 cells |
| COc1ccnc(NC2CCN(C(=O)c3ccccc3)CC2)c1 | 6.85 | < 3 µL/min/mg | 2.06 | – |
| COc1ccc(OC)c(CNc2[nH]nc3cccc(Oc4ccccc4)c23)c1 | 3.8 | 11 µL/min/mg | – | – |
| CC(C)(C)c1ccc(C(O)CCCN2CCC(C(O)(c3ccccc3)c3ccccc3)CC2)cc1 (stereo not drawn) [TERFENADINE] | 8.8 | – | 3.99 | solubility thermodynamic (physchem [7]): 5.4 µM (≈ 2.55 µg/mL); fraction unbound at 5 h (in vitro [5]; PPB): 0.0084 |

| SMILES | pKa (physchem [1]) | microsomal CLint (in vitro [2]; liver microsomes) | logD (physchem [4]; pH 7.4, LogD7.4) | other results |
| --- | --- | --- | --- | --- |
| NC1=NC(c2ccco2)Nc2c(F)ccc(F)c21 (stereo not drawn) | 8.2 | – | 1.2 | – |
| COc1ccccc1CNc1cc(C)ccn1 | 7.1 | – | 3.28 | – |
| Cc1cc(C)nc(N)c1 | 7.7 | – | 0.85 | – |
| O=C(O)COc1ccc(C(F)(F)F)cc1CN1CCN(C(=O)c2ccccc2)CC1 | 6.9 | 4.7 µL/min/mg | – | hepatocyte CLint (in vitro [3]): < 3 µL/min/1e6 cells |
| COc1ccc(NC(=O)c2ccc(Cn3ccnn3)c3ccccc23)c(C(=O)NCC2CCOCC2)n1 | – | – | – | fraction unbound at 5 h (in vitro [6]): 0.028 |
| Nc1nc2ccccc2[nH]1 | 7.2 | < 3 µL/min/mg | – | – |
| Cc1ccc(C(=O)N2CC3CNCC(C2)O3)cc1NC(=O)CC12CC3CC(CC(C3)C1)C2 | 7.18 | – | 2.12 | microsomal CLint (in vitro [2]; microsomes): 71.2 µL/min/mg; hepatocyte CLint (in vitro [3]): 16.2 µL/min/1e6 cells |
| CCN(CC)C(C)C(=O)c1ccccc1 (stereo not drawn) [DIETHYLPROPION] | 8.8 | – | – | logD (physchem [4]; pH 7.4): 1.18 |
| C[C@H]1CN=C(N)c2sccc2O1 | 11 | – | – | microsomal CLint (in vitro [2]; microsomes): 7 µL/min/mg |
| Cc1cc(N)nc(CCNC(=O)c2ccc(C#N)cc2)c1 | 7.1 | – | 1.62 | solubility thermodynamic (physchem [7]): 64.6 µM (≈ 18.1 µg/mL) |
| COc1cccc(C(=O)NCCN2CCC(Oc3ccc(Cl)c(Cl)c3)CC2)c1 | 7.4 | 9 µL/min/mg | – | solubility thermodynamic (physchem [7]): 9.5 µM (≈ 4.02 µg/mL); fraction unbound at 5 h (in vitro [5]; PPB): 0.0008 |
| Cc1ccnc(NCc2ccccc2O)c1 | 6.8 | – | 3.35 | – |
| Cc1nc2ccc(-c3ccc(Cl)cc3)cc2c(=O)n1C[C@H]1CCCN(C(C)C)C1 | 10.1 | – | 3.3 | microsomal CLint (in vitro [2]; microsomes): < 3 µL/min/mg; hepatocyte CLint (in vitro [3]): 3.8 µL/min/1e6 cells |
| N#Cc1ccc(Cl)cc1O[C@H](CCN)c1ccccc1 | 10.3 | 4 µL/min/mg | 0.76 | – |
| CNC(=C[N+](=O)[O-])NCCSCc1ccc(CN(C)C)o1 [RANITIDINE] | – | – | -0.95 | fraction unbound at 5 h (in vitro [6]): 0.711 |
| CNc1cc2[nH]c(=O)n(-c3ccc(NC(=O)NS(=O)(=O)c4ccc(Cl)s4)cc3)c(=O)c2cc1F [ELINOGREL] | – | – | – | fraction unbound at 5 h (in vitro [5]; PPB): 0.0042; fraction unbound at 5 h (in vitro [6]): 0.0069 |
| Cc1cc(-c2ccc(Cl)c(C(=O)NCC3(O)CCCCCC3)c2)nn1C[C@H](O)CN | 8.6 | < 3 µL/min/mg | 0.57 | fraction unbound at 5 h (in vitro [5]; PPB): 0.304; fraction unbound at 5 h (in vitro [8]): 0.309; hepatocyte CLint (in vitro [3]): < 3 µL/min/1e6 cells; hepatocyte CLint (in vitro [9]): < 3 µL/min/1e6 cells |
